Measured values from PubChem BioAssay (NCI).
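Interpolation was linear, between the two tested concentrations surrounding the appropriate level; five concentrations were tested over 48 hours in 96-well plates. TGI is the concentration that stops growth completely.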

Assays:
Experiment in all cases: NCI-60 cell line screen, 48 h
SW-620 colon = tested on: SW-620 colon
U251 CNS = tested on: U251 CNS
MDA-MB-231 breast = tested on: MDA-MB-231 breast
DU-145 prostate = tested on: DU-145 prostate
RPMI-8226 leukemia = tested on: RPMI-8226 leukemia
PC-3 prostate = tested on: PC-3 prostate
OVCAR-3 ovarian = tested on: OVCAR-3 ovarian
BT-549 breast = tested on: BT-549 breast
EKVX NSCLC = tested on: EKVX NSCLC
NCI-H522 lung = tested on: NCI-H522 lung
MDA-MB-435 = tested on: MDA-MB-435
HCT-116 colon = tested on: HCT-116 colon
SN12C renal = tested on: SN12C renal
MOLT-4 leukemia = tested on: MOLT-4 leukemia
HOP-92 NSCLC = tested on: HOP-92 NSCLC
CAKI-1 renal = tested on: CAKI-1 renal
MCF7 breast = tested on: MCF7 breast
LOX IMVI melanoma = tested on: LOX IMVI melanoma
SNB-75 CNS = tested on: SNB-75 CNS

Structure (SMILES)	TGI (SW-620 colon)	TGI (U251 CNS)	TGI (MDA-MB-231 breast)	TGI (DU-145 prostate)	TGI (RPMI-8226 leukemia)	TGI (PC-3 prostate)	TGI (OVCAR-3 ovarian)	TGI (BT-549 breast)	TGI (EKVX NSCLC)	TGI (NCI-H522 lung)	TGI (MDA-MB-435)	TGI (HCT-116 colon)	TGI (SN12C renal)	TGI (MOLT-4 leukemia)	TGI (HOP-92 NSCLC)	TGI (CAKI-1 renal)	TGI (MCF7 breast)	TGI (LOX IMVI melanoma)	TGI (SNB-75 CNS)
C[C@@H](C(=O)O)N1C(c2ccco2)=C(/C(C=O)=C\c2ccco2)C(=O)/C1=C\c1ccco1	> 100 µM	> 100 µM	> 100 µM	> 100 µM	> 100 µM	> 100 µM	> 100 µM	> 100 µM	> 100 µM	> 100 µM	> 100 µM	> 100 µM	> 100 µM	> 100 µM	> 100 µM	> 100 µM	> 100 µM	> 100 µM	–
CC(=O)OCC1OC(N2C(C)=C(C(C)=O)C(c3ccc(Cl)cc3)C(C#N)=C2S)C(OC(C)=O)C(OC(C)=O)C1OC(C)=O (stereo not drawn)	> 100 µM	> 100 µM	> 100 µM	> 100 µM	> 100 µM	> 100 µM	> 100 µM	> 100 µM	–	> 100 µM	> 100 µM	> 100 µM	> 100 µM	82.2 µM	> 100 µM	> 100 µM	> 100 µM	> 100 µM	> 100 µM
CSc1c(C(=O)Nc2ccccc2)c(N)n(N)c(=O)c1C#N	> 100 µM	> 100 µM	> 100 µM	> 100 µM	> 100 µM	> 100 µM	> 100 µM	> 100 µM	> 100 µM	> 100 µM	> 100 µM	> 100 µM	> 100 µM	> 100 µM	–	> 100 µM	> 100 µM	> 100 µM	> 100 µM
COC(=O)C1Cc2cc3c(cc2C1=O)CCC3 (stereo not drawn)	> 100 µM	> 100 µM	> 100 µM	> 100 µM	> 100 µM	> 100 µM	> 100 µM	> 100 µM	> 100 µM	> 100 µM	> 100 µM	> 100 µM	> 100 µM	> 100 µM	–	> 100 µM	> 100 µM	> 100 µM	> 100 µM
CC(C)(C)C1CCC(=O)/C(=C/CC2CC(=O)N(c3ccccc3)C(=O)C2)C1 (stereo not drawn)	53.5 µM	31 µM	> 100 µM	40 µM	49.1 µM	70.2 µM	47.7 µM	44.5 µM	60.2 µM	39.2 µM	64.8 µM	29.3 µM	41.3 µM	75.2 µM	–	41.6 µM	49.5 µM	29.7 µM	53.3 µM
O=C1NC(=S)N/C1=C\c1cccs1	> 100 µM	> 100 µM	> 100 µM	> 100 µM	> 100 µM	> 100 µM	> 100 µM	> 100 µM	> 100 µM	> 100 µM	> 100 µM	> 100 µM	> 100 µM	> 100 µM	–	> 100 µM	> 100 µM	> 100 µM	> 100 µM
O=C(CSc1nnc(-c2ccccn2)s1)N/N=C/c1ccccc1	> 100 µM	> 100 µM	> 100 µM	> 100 µM	–	> 100 µM	> 100 µM	> 100 µM	–	> 100 µM	> 100 µM	> 100 µM	> 100 µM	> 100 µM	> 100 µM	> 100 µM	> 100 µM	> 100 µM	17 µM
CC1C2CC(C(S(=O)(=O)O)C2=O)C1(C)C (stereo not drawn)	> 100 µM	> 100 µM	> 100 µM	> 100 µM	–	> 100 µM	> 100 µM	> 100 µM	> 100 µM	> 100 µM	> 100 µM	> 100 µM	> 100 µM	> 100 µM	> 100 µM	–	> 100 µM	–	> 100 µM
COc1c(=O)cc2cc[nH]c3cc[nH]c1c23	> 100 µM	> 100 µM	> 100 µM	> 100 µM	> 100 µM	> 100 µM	47.8 µM	> 100 µM	> 100 µM	12.1 µM	> 100 µM	> 100 µM	> 100 µM	> 100 µM	> 100 µM	> 100 µM	92.6 µM	> 100 µM	–
Cc1cc(C)c2c(=O)cc(-c3cccc4ccccc34)[nH]c2n1	> 88.8 µM	23.8 µM	18.6 µM	> 100 µM	29 µM	> 100 µM	–	> 100 µM	> 100 µM	–	0.513 µM	> 100 µM	> 100 µM	42.7 µM	> 77.1 µM	> 100 µM	> 100 µM	26.4 µM	–
O=C1CS(=O)(=O)C(c2cccc(Oc3ccccc3)c2)N1c1ccc(Cl)cc1 (stereo not drawn)	> 100 µM	56.1 µM	> 100 µM	> 100 µM	–	84.5 µM	> 100 µM	90.1 µM	51.3 µM	68.9 µM	73.4 µM	22.6 µM	57.7 µM	62.7 µM	23.8 µM	64.8 µM	31.9 µM	29.1 µM	> 100 µM
C=C(CCOC)CCC1CCCCC(CN(C)C)C1=O (stereo not drawn)	> 100 µM	> 100 µM	> 100 µM	> 100 µM	> 100 µM	> 100 µM	> 100 µM	> 100 µM	> 100 µM	> 100 µM	> 100 µM	> 100 µM	> 100 µM	> 100 µM	–	> 100 µM	> 100 µM	> 100 µM	> 100 µM
O=C(O)CO[C@@]12C#C/C=C\C#C[C@@H]3N(C(=O)Oc4ccccc4)c4ccccc4[C@]14O[C@@]34CCC2	> 100 µM	54.8 µM	26.6 µM	> 100 µM	> 100 µM	> 100 µM	> 100 µM	69.9 µM	> 100 µM	85.9 µM	6.29 µM	> 100 µM	> 100 µM	> 100 µM	> 100 µM	> 100 µM	46.7 µM	> 100 µM	–
ONC1=Nc2cc(Cl)ccc2C(=S)N2CSCC12 (stereo not drawn)	> 100 µM	> 100 µM	> 100 µM	> 100 µM	> 100 µM	> 100 µM	> 100 µM	> 100 µM	> 100 µM	> 100 µM	> 100 µM	> 100 µM	> 100 µM	> 100 µM	–	> 100 µM	> 100 µM	> 100 µM	> 100 µM
O=C1C2=Cc3ccccc3OC2(O)Oc2cc3ccccc3cc21 (stereo not drawn)	> 100 µM	> 100 µM	> 100 µM	> 100 µM	> 100 µM	> 100 µM	> 100 µM	> 100 µM	> 100 µM	–	> 100 µM	> 100 µM	> 100 µM	> 100 µM	> 100 µM	> 100 µM	> 100 µM	> 100 µM	73.2 µM
CC[C@@H](C)[C@H](NC(=O)[C@H](Cc1ccccc1)NCC(F)(F)F)C(=O)OC(C)(C)C	> 100 µM	> 100 µM	> 100 µM	> 100 µM	–	> 100 µM	> 100 µM	> 100 µM	> 100 µM	> 100 µM	> 100 µM	> 100 µM	> 100 µM	> 100 µM	> 100 µM	> 100 µM	> 100 µM	> 100 µM	–
COc1ccc(CC2COc3cc(OC)cc(OC)c3C2=O)cc1 (stereo not drawn)	> 100 µM	> 100 µM	> 100 µM	77.2 µM	40.5 µM	> 100 µM	46.5 µM	> 100 µM	77.8 µM	87 µM	18.1 µM	32.7 µM	> 100 µM	> 100 µM	> 100 µM	57.1 µM	> 100 µM	> 100 µM	–
CCOC(=O)c1ccc(N=C/C=C(\Nc2ccc(C(=O)OCC)cc2)C23CC4CC(CC(C4)C2)C3)cc1	> 100 µM	> 100 µM	> 100 µM	> 100 µM	–	> 100 µM	> 100 µM	> 100 µM	> 100 µM	> 100 µM	> 100 µM	> 100 µM	> 100 µM	> 100 µM	> 100 µM	> 100 µM	> 100 µM	> 100 µM	> 100 µM
CNc1ncccc1Nc1cc(=O)n2c3cccnc3n(C)c2c1	> 100 µM	> 100 µM	> 100 µM	> 100 µM	> 100 µM	> 100 µM	> 100 µM	> 100 µM	> 100 µM	> 100 µM	> 100 µM	> 100 µM	–	> 100 µM	–	> 100 µM	> 100 µM	> 100 µM	78.1 µM
C=CCn1c(N)c(C#N)c(C#N)c1CCC	> 100 µM	> 100 µM	> 100 µM	> 100 µM	> 100 µM	> 100 µM	> 100 µM	> 100 µM	> 100 µM	> 100 µM	> 100 µM	–	> 100 µM	> 100 µM	> 100 µM	> 100 µM	> 100 µM	> 100 µM	> 100 µM
C/C(=N\NS(=O)(=O)c1ccc(C)cc1)c1ccccn1	> 100 µM	> 100 µM	> 100 µM	> 100 µM	> 100 µM	> 100 µM	> 100 µM	> 100 µM	> 100 µM	–	> 100 µM	> 100 µM	–	> 100 µM	> 100 µM	> 100 µM	> 100 µM	> 100 µM	> 100 µM
CNC1(c2cc3ccccc3s2)CCCCC1	> 100 µM	33.8 µM	71.8 µM	> 100 µM	–	55.5 µM	> 100 µM	> 100 µM	93.8 µM	29.1 µM	36.6 µM	> 100 µM	> 100 µM	> 100 µM	61.6 µM	> 100 µM	90.5 µM	40.9 µM	99.3 µM
Cc1ccc(C2(O)CSC(=NC34CC5CC(CC(C5)C3)C4)N2C(P(=O)(O)O)P(=O)(O)O)cc1 (stereo not drawn)	> 100 µM	> 100 µM	> 100 µM	> 100 µM	> 100 µM	> 100 µM	> 100 µM	> 100 µM	> 100 µM	–	> 100 µM	67.5 µM	> 100 µM	> 100 µM	> 100 µM	> 100 µM	> 100 µM	–	> 100 µM
CCCCCCCC(CC(=O)NC(CO)C(=O)NC(CO)CC(C)C)OC(=O)CC(CCCCCCC)OC(=O)CC(CCCCCCC)OC1OC(C)C(O)C(OC2OC(C)C(OC(C)=O)C(O)C2O)C1O (stereo not drawn)	23.3 µM	14.7 µM	20.4 µM	24 µM	–	16.2 µM	24.2 µM	19.6 µM	28.2 µM	24.7 µM	19.4 µM	17.9 µM	18.6 µM	12.2 µM	21 µM	29 µM	23.8 µM	–	16.3 µM
COc1cc2c(cc1OCCCCCCCCCCN1C(=O)c3cccc4cccc(c34)C1=O)N=C[C@@H]1CCCN1C2=O	19 µM	13.4 µM	20.4 µM	34.4 µM	4 µM	12.3 µM	20.3 µM	20.9 µM	14.4 µM	28.9 µM	18.8 µM	> 100 µM	18.3 µM	5.76 µM	–	28.9 µM	9.26 µM	4.99 µM	21.3 µM
O=C1/C(=C/C=C/c2ccccc2)CCC1CNc1ccccc1 (stereo not drawn)	> 90.4 µM	> 100 µM	51.7 µM	> 100 µM	–	> 100 µM	> 68.9 µM	> 69 µM	> 100 µM	> 22.7 µM	> 86 µM	> 50 µM	63.9 µM	> 100 µM	> 95.1 µM	> 100 µM	32.7 µM	40 µM	> 100 µM
